# Columns and labels:
# [1] = test system: Candida albicans; experiment: Antimicrobial activity against Candida albicans after 48 hrs by two-fold serial dilution method; type: functional
# [2] = test system: Chromobacterium violaceum; experiment: Inhibition of N-acyl-homoserinlactone-related quorum sensing system in Chromobacterium violaceum ATCC 12472 assessed as diameter of violacein pigment inhibition after 48 hrs
# [3] = test system: Escherichia coli; experiment: Antimicrobial activity against Escherichia coli ATCC 12435 after 24 hrs by two-fold serial dilution method; type: functional; details: ATCC 12435, 24 h
# [4] = test system: Staphylococcus aureus; experiment: Antimicrobial activity against Staphylococcus aureus ATCC 29213 after 24 hrs by two-fold serial dilution method; type: functional; details: ATCC 29213, 24 h
# [5] = test system: Aspergillus flavus; experiment: Antimicrobial activity against Aspergillus flavus 3375 after 48 hrs by two-fold serial dilution method; type: functional; details: Aspergillus flavus, 3375, 48 h
# [6] = test system: Bacillus cereus; experiment: Antimicrobial activity against Bacillus cereus UW 85 after 24 hrs by two-fold serial dilution method; type: functional; details: UW 85, 24 h
# [7] = test system: MCF7; experiment: Cytotoxicity against human MCF7 cells assessed as decrease in cell viability after 48 hrs by MTT assay; type: functional, cell-based; details: MCF7, 48 h
# [8] = test system: HepG2; experiment: Cytotoxicity against human HepG2 cells assessed as decrease in cell viability after 48 hrs by MTT assay; type: functional, cell-based; details: HepG2, 48 h
# [9] = test system: Aspergillus fumigatus; experiment: Antimicrobial activity against Aspergillus fumigatus 293 after 48 hrs by two-fold serial dilution method; type: functional; details: Af293, 48 h
# [10] = test system: HeLa; experiment: Cytotoxicity against human HeLa cells assessed as decrease in cell viability after 48 hrs by MTT assay; type: functional, cell-based
# [11] = test system: Pseudomonas aeruginosa; experiment: Antimicrobial activity against Pseudomonas aeruginosa PAO1 after 24 hrs by two-fold serial dilution method; type: functional; details: PAO1, 24 h
# [12] = Displacement of methyl green from DNA (unknown origin) incubated in dark for 24 hrs
# [13] = test system: WI-38; experiment: Cytotoxicity against human W138 cells assessed as decrease in cell viability after 48 hrs by MTT assay; type: cell-based; details: WI-38, 48 h
# [14] = test system: Ehrlich; experiment: Antitumor activity against mouse EAC cells implanted in Swiss albino mouse assessed as effect on tumor volume at 0.5 mg/mouse administered for 9 days (reference value: 9.85 mL); type: functional
# [15] = test system: Ehrlich; experiment: Antitumor activity against mouse EAC cells implanted in Swiss albino mouse assessed as mean survival time at 0.5 mg/mouse administered for 9 days (reference value: 14.5 day); type: functional
# [16] = test system: Mus musculus; experiment: Toxicity in Swiss albino mouse implanted with mouse EAC cells assessed as effect on WBC count at 0.5 mg/mouse administered for 9 days (reference value: 23.96 10^3/mm3); type: organism-based; details: in vivo, 216 h
# [17] = test system: Mus musculus; experiment: Toxicity in Swiss albino mouse implanted with mouse EAC cells assessed as effect on hemoglobin content at 0.5 mg/mouse administered for 9 days (reference value: 8.15 g/dl); type: organism-based; details: in vivo, 216 h
# [18] = test system: Mus musculus; experiment: Toxicity in Swiss albino mouse implanted with mouse EAC cells assessed as effect on RBC count at 0.5 mg/mouse administered for 9 days (reference value: 3.69 10^6/mm3); type: organism-based; details: in vivo, 216 h
# [19] = test system: WISH; experiment: Cytotoxicity against human WISH cells assessed as decrease in cell viability after 48 hrs by MTT assay; type: cell-based
# [20] = test system: Ehrlich; experiment: Antitumor activity against mouse EAC cells implanted in Swiss albino mouse assessed as effect on viable tumor cell count at 0.5 mg/mouse administered for 9 days by trypan blue staining based method (reference value: 83.20 10^6/ml); type: functional
# [21] = test system: Ehrlich; experiment: Antitumor activity against mouse EAC cells implanted in Swiss albino mouse assessed as increase in life span at 0.5 mg/mouse administered for 9 days relative to control; type: functional
compound,measurement,setting,value
OC(Cn1cncn1)(Cn1cncn1)c1ccc(F)cc1F [FLUCONAZOLE],MIC,[1],6530 µM
Cc1n[nH]c2c1C(c1ccc(N(C)C)cc1)C(C(=O)N/N=C1/C(=O)Nc3ccccc31)=C(N)N2 (stereo not given),inhibition zone (IZ),[2],< 2 mm
same,MIC,[3],4380 µM
same,MIC,[4],2190 µM
same,MIC,[5],2190 µM
same,MIC,[6],2190 µM
same,IC50,[7],59.1 µM
same,IC50,[8],57.9 µM
same,MIC,[1],2190 µM
same,MIC,[9],2190 µM
same,IC50,[10],52.9 µM
same,MIC,[11],548 µM
Cc1n[nH]c2c1C(c1ccc(N(C)C)cc1)C(C(=O)O)=C(N)N2 (stereo not given),inhibition zone (IZ),[2],11 mm
same,MIC,[3],199 µM
same,MIC,[4],99.7 µM
same,MIC,[5],399 µM
same,MIC,[6],99.7 µM
same,IC50,[7],22 µM
same,IC50,[8],39.7 µM
same,MIC,[1],798 µM
same,IC50,[12],41.7 µM
same,MIC,[9],399 µM
same,IC50,[10],33.6 µM
same,MIC,[11],199 µM
Cc1n[nH]c2c1C(c1ccc(N(C)C)cc1)C(C(=O)NNC(N)=S)=C(N)N2 (stereo not given),IC50,[13],53.5 µM
same,inhibition zone (IZ),[2],< 2 mm
same,Activity,[14],2.25 mL
same,MST,[15],46 days
same,MIC,[3],1290 µM
same,Activity,[16],8.52 ×10³ /mm3
same,Activity,[17],13.4 g/dL
same,MIC,[4],647 µM
same,MIC,[5],1290 µM
same,Activity,[18],5.59 ×10⁶ /mm3
same,IC50,[19],49 µM
same,MIC,[6],647 µM
same,IC50,[7],5.21 µM
same,IC50,[8],6.32 µM
same,MIC,[1],1290 µM
same,Activity,[20],30.94 ×10⁶ /ml
same,IC50,[12],36.7 µM
same,ILS,[21],155.5%
same,MIC,[9],1290 µM
same,IC50,[10],6.26 µM
same,MIC,[11],647 µM
Cc1n[nH]c2c1C(c1ccc(N(C)C)cc1)C(C(N)=O)=C(N)N2 (stereo not given),IC50,[13],68.5 µM
same,inhibition zone (IZ),[2],< 2 mm
same,Activity,[14],1.35 mL
same,MST,[15],61 days
same,Activity,[16],8.2 ×10³ /mm3
same,Activity,[17],14 g/dL
same,MIC,[5],6400 µM
same,Activity,[18],5.94 ×10⁶ /mm3
same,IC50,[19],76.4 µM
same,IC50,[7],4.55 µM
same,IC50,[8],5.28 µM
same,MIC,[1],6400 µM
same,Activity,[20],21.46 ×10⁶ /ml
same,IC50,[12],28 µM
same,ILS,[21],238.9%
same,MIC,[9],3200 µM
same,IC50,[10],5.77 µM
same,MIC,[11],3200 µM
Cc1n[nH]c2c1C(c1ccc(N(C)C)cc1)C=C(N)N2 (stereo not given),IC50,[13],18.1 µM
same,inhibition zone (IZ),[2],< 2 mm
same,Activity,[14],4.8 mL
same,MST,[15],31 days
same,MIC,[3],7430 µM
same,Activity,[16],12.69 ×10³ /mm3
same,Activity,[17],10.95 g/dL
same,MIC,[4],3710 µM
same,MIC,[5],3710 µM
same,Activity,[18],4.53 ×10⁶ /mm3
same,IC50,[19],21.6 µM
same,MIC,[6],3710 µM
same,IC50,[7],11.2 µM
same,IC50,[8],20.6 µM
same,MIC,[1],3710 µM
same,Activity,[20],51.17 ×10⁶ /ml
same,IC50,[12],56.4 µM
same,ILS,[21],72.2%
same,MIC,[9],3710 µM
same,IC50,[10],27.4 µM
same,MIC,[11],3710 µM
Cc1n[nH]c2c1C(c1ccc(N(C)C)cc1)C(C(=O)n1ncc(C#N)c1N)=C(N)N2 (stereo not given),inhibition zone (IZ),[2],< 2 mm
same,MIC,[5],2480 µM
same,IC50,[7],62.7 µM
same,IC50,[8],66.3 µM
same,MIC,[1],4960 µM
same,MIC,[9],2480 µM
same,IC50,[10],60.2 µM
same,MIC,[11],620 µM
COc1cccc2c1C(=O)c1c(O)c3c(c(O)c1C2=O)C[C@@](O)(C(=O)CO)C[C@@H]3O[C@H]1C[C@H](N)[C@H](O)[C@H](C)O1 [DOXORUBICIN],Activity,[14],1 mL
same,MST,[15],62 days
same,Activity,[16],8.96 ×10³ /mm3
same,Activity,[17],12.75 g/dL
same,Activity,[18],5.32 ×10⁶ /mm3
same,IC50,[19],8.14 µM
same,Activity,[20],16.36 ×10⁶ /ml
same,IC50,[12],31.3 µM
same,ILS,[21],244.4%
CC1(C)S[C@@H]2[C@H](NC(=O)[C@H](N)c3ccccc3)C(=O)N2[C@H]1C(=O)O [AMPICILLIN],MIC,[3],44.7 µM
same,MIC,[4],716 µM
same,MIC,[6],1430 µM
Oc1cc(O)c2c(c1)O[C@H](c1ccc(O)c(O)c1)[C@@H](O)C2,inhibition zone (IZ),[2],2 mm
Cc1n[nH]c2c1C(c1ccc(N(C)C)cc1)C(C(=O)N/N=C/c1ccc(Cl)cc1)=C(N)N2 (stereo not given),inhibition zone (IZ),[2],< 2 mm
same,MIC,[3],556 µM
same,MIC,[4],556 µM
same,MIC,[5],2220 µM
same,MIC,[6],556 µM
same,IC50,[7],25.2 µM
same,IC50,[8],39.5 µM
same,MIC,[1],1110 µM
same,IC50,[12],67.8 µM
same,MIC,[9],2220 µM
same,IC50,[10],31.7 µM
same,MIC,[11],556 µM
Cc1n[nH]c2c1C(c1ccc(N(C)C)cc1)C(C(=O)NNc1cc([N+](=O)[O-])ccc1[N+](=O)[O-])=C(N)N2 (stereo not given),IC50,[13],55.4 µM
same,inhibition zone (IZ),[2],2.5 mm
same,Activity,[14],2.8 mL
same,MST,[15],42 days
same,MIC,[3],1010 µM
same,Activity,[16],10.32 ×10³ /mm3
same,Activity,[17],13.1 g/dL
same,MIC,[4],507 µM
same,MIC,[5],1010 µM
same,Activity,[18],5.24 ×10⁶ /mm3
same,IC50,[19],51.2 µM
same,MIC,[6],253 µM
same,IC50,[7],13 µM
same,IC50,[8],8.68 µM
same,MIC,[1],1010 µM
same,Activity,[20],34.73 ×10⁶ /ml
same,IC50,[12],34 µM
same,ILS,[21],133.3%
same,MIC,[9],1010 µM
same,IC50,[10],8.52 µM
same,MIC,[11],507 µM
Cc1n[nH]c2c1C(c1ccc(N(C)C)cc1)C(C(=O)NN)=C(N)N2 (stereo not given),inhibition zone (IZ),[2],5 mm
same,MIC,[3],1530 µM
same,MIC,[4],764 µM
same,MIC,[5],1530 µM
same,MIC,[6],764 µM
same,IC50,[7],42.6 µM
same,IC50,[8],66.4 µM
same,MIC,[1],1530 µM
same,IC50,[12],68.2 µM
same,MIC,[9],1530 µM
same,IC50,[10],51.3 µM
same,MIC,[11],764 µM

# Reference: ChEMBL document CHEMBL4270515, “New pyrazolopyridine analogs: Synthesis, antimicrobial, antiquorum-sensing and antitumor screening” (Eur J Med Chem, 2018)
